Reference: paper PMC7617456, “Cryptosporidium lysyl-tRNA synthetase inhibitors define the interplay between solubility and permeability required to achieve efficacy” (Science translational medicine, 2024)

Test system: transgenic C. parvum that express NanoLuciferase
Experiment: NOD SCID Gamma chronic mouse efficacy model
Type: in vivo
Conditions: 50 mg/kg BID oral 7 days from day 36 PI
Method: We next developed a mouse efficacy model that mimics chronic infection. In this model, NOD SCID Gamma mice were allowed to become highly infected (>10^9 RLU) and maintain this for a minimum of one week before compound treatment was administered (Fig. 4C). To achieve efficacy against this chronic infection, compounds must kill more parasites, offering a more rigorous method for assessing suitability for progression.
Male NOD SCID Gamma mice (NOD.Cg-Prkdc^scid Il2rgtm1Wjl/SzJ; purchased from Charles Rivers) aged 10 weeks old were used (n = 4 mice per experimental group). Mice were infected by oral gavage (5,000 oocysts of Δtk::mNeon-Neo^R). Oocyst shedding in feces was determined by NanoLuciferase assay as described above. Once infection became chronic (at least 1 week of fecal RLUs/g at >10^9), compounds were administered. DDD489 was prepared in HPMC without DMSO and administered by oral gavage at 50 mg/kg starting day 36 post infection. Early lead compound DDD706 served as the positive control (administered at 20 mg/kg QD). Fecal samples were pooled from all mice in the cage on days indicated.

What does the source list for `Nc1nc2c(c(C(F)(F)F)n1)C(=O)N(CC1CCCC(C(F)(F)F)C1)C2` (centres unmarked) [DDD489]?
parasite shedding by end of treatment period: reduce parasite shedding below the LOQ; recrudescence: failed to prevent recrudescence
